Test results published in patent US11813280B2, “Reducing beta-catenin and IDO expression to potentiate immunotherapy” (Dicerna Pharmaceuticals, Inc., priority 2018, dated 2023).
Entries after “also recorded” stand apart in the source; their conditions may differ.

Legend:
4T1 tumors [1] = experiment: 4T1 tumor growth study; type: in vivo, Balb/C mice
Procedure: (§1) 6-8-week-old immunocompetent mice (C57BL/6 or Balb/C) were injected subcutaneously with 1.5×10^6B16F10 or 1.5×10^6 4T1 tumor cells under the right shoulder. Tumor volume was measured every 2-3 days a week to monitor tumor growth. Dosing was initiated when the tumors reached about 150-200 mm^3. […] BCAT1 formulated LNP or Placebo (scrambled CTNNB1 dsRNAi) formulated LNP was given intravenously via lateral tail vein at a total volume of 10 ml/kg. Immunotherapy treatments (anti-PD-1 antibody) were given intraperitoneally at a volume of 10 ml/kg.
(§2) Mouse cell lines B16F10 and 4T1 cells were obtained from ATCC (Manassas, Va.) and grown in RPMI/DMEM medium supplemented with 10% FBS. B16F10 cells is a murine melanoma cell line with no Wnt activation or IDO1 activation. 4T1 is a murine breast cell line with Wnt activation and constitutive activation of IDO1.
In another study, 4T1 tumor cells were implanted in Balb/C mice and 4 days post-implant, the mice were randomized into two groups and treated with placebo or BCAT1. This dosing cycle was then repeated on days 9 and 10. Tumor growth was monitored by measuring the tumor sizes over the course of the treatment period. […] FIG. 1C.
Tumors were collected 48 hours after the last dose and were subjected to immunohistochemistry to look at β-catenin, CD8 and IDO1 levels. […] FIG. 3B. FIG. 3B. […] Tumor growth was monitored by measuring the tumor sizes over the course of the treatment period. […] FIG. 3C.

B16F10 tumors [2] = experiment: B16F10 tumor growth study; type: in vivo, C57BL/6 mice; conditions: IDOi twice daily 100 mg/kg per dose days 7 and 9; 100 mg/kg
Procedure: as §1, §2
In a similar study, B16F10 tumor cells were implanted in C57BL/6 mice and at day 5 post-implant, the mice were randomized into two groups and treated with placebo or BCAT1. This dosing cycle was then repeated on days 11 and 12. Tumor growth was monitored by measuring the tumor sizes over the course of the treatment period. […] FIG. 6C.
Tumor growth was monitored by measuring the tumor sizes over the course of the treatment period. […] FIG. 8C. […]

MMTV-Wnt tumors = experiment: Immunohistochemistry of MMTV-Wnt tumors for β-catenin, CD8 and IDO1; type: in vivo, mice; conditions: IDOi 30 mg/kg per dose twice a day for 3 consecutive days; tumors 24 hours after last dose
Procedure: In the MMTV-Wnt mouse model, mammary gland specific overexpression of Wnt1 with MMTV-LTR leads to spontaneous breast tumors with activated Wnt/β-catenin signaling. MMTV-Wnt mammary tumors spontaneously grow in mice in 3-6 months from the time of birth with Wnt pathway activation.
To see the effect of β-catenin inhibition on T cell infiltration and IDO1 levels in spontaneous tumors, the MMTV-Wnt1 model was used. The tumors were collected 24 hours after the last dose and subjected to immunohistochemistry to determine β-catenin, CD8, and IDO1 levels.
Tumors were collected 24 hours after the last dose and subjected to immunohistochemistry to determine β-catenin, CD8 and IDO1 levels.

4T1 tumors [3] = experiment: Immunohistochemistry of 4T1 tumors for β-catenin, CD8 and IDO1; type: in vivo, Balb/C mice; conditions: IDOi orally twice daily 100 mg/kg per dose days 6 and 8, tumors 48 hours after last dose, vs vehicle
B16F10 tumors [4] = experiment: Immunohistochemistry of B16F10 tumors for β-catenin, CD8 and IDO1; type: in vivo, C57BL/6 mice; conditions: IDOi orally twice daily 100 mg/kg per dose days 7 and 9, tumors 48 hours after last dose, vs vehicle
melanoma = conditions: epacadostat in combination with the PD-1 inhibitors pembrolizumab and nivolumab; Phase I/II; cited from earlier work
[5] = tested on: metastatic or recurrent squamous cell carcinoma of the head and neck, advanced urothelial cell carcinoma, and advanced renal cell carcinoma; conditions: epacadostat combination; cited from earlier work

SMILES: NS(=O)(=O)NCCNc1nonc1C(=NO)Nc1ccc(F)c(Br)c1 [IDOi, epacadostat]
- tumor growth as compared to placebo (4T1 tumors [1]; IDOi alone twice daily at 100 mg/kg per day on days 6 and 8 post-implant, 100 mg/kg/day): tumor growth inhibition; also recorded: inhibits tumor growth
- anti-tumor efficacy (tumor volume) (4T1 tumors [1]; IDOi orally 100 mg/kg per dose twice daily days 4 and 6, BCAT1 iv 3 mg/kg days 5 and 6, anti-PD-1 antibody ip 5 mg/kg days 7 and 8, single, double or triple agents): modest anti-tumor efficacy
- tumor growth inhibition vs vehicle (B16F10 tumors [2]): did not result in any significant tumor growth inhibition; also recorded: does not significantly inhibit tumor growth
- CD8 levels (immunohistochemistry) (MMTV-Wnt tumors): increases
- IDO1 levels (immunohistochemistry) (MMTV-Wnt tumors): reduced the IDO1 levels almost completely; also recorded: reduces
- β-catenin levels (immunohistochemistry) (MMTV-Wnt tumors): increases
- CD8 levels / CD8 T-cell infiltration (immunohistochemistry) (4T1 tumors [3]): only modestly altered; also recorded: increases
- IDO1 levels (immunohistochemistry) (4T1 tumors [3]): reduced the IDO1 levels almost completely; also recorded: decreases
- β-catenin levels (immunohistochemistry) (4T1 tumors [3]): only modestly altered; also recorded: decreases
- CD8 levels / CD8 T-cell infiltration (immunohistochemistry) (B16F10 tumors [4]): increases
- IDO1 levels (immunohistochemistry) (B16F10 tumors [4]): reduced the IDO1 levels almost completely; also recorded: decreases
- β-catenin levels (immunohistochemistry) (B16F10 tumors [4]): decreases
- clinical results in patients with melanoma (melanoma): positive early results
- efficacy in other tumors [5]: shown efficacy
